Measured values as given in US20070244199A1 (priority 2006, published 2007).
Converted amounts (≈) assume the structure as drawn. “Also recorded” adds a separate entry of the source.

What was measured:
[1] = Pro-drug decomposition at acid and physiologic pH; format: physicochemical
Protocol: At physiologic pH (or about 7.5), the molecule slowly breaks down (with a half-time of about 15 hours) to release DSA. This property would enhance the prolonged maintenance of plasma concentrations of the active drug. The MICs of these pro-drug molecules are 6.25 μg/ml (for the 10 carbon compound) and 12.5 μg/ml (for the 8 carbon compound).

[2] = test system: M. tuberculosis (H37Rv); assay: BACTEC radiometric MIC determination against M. tuberculosis; format: cell-based; settings: Mycobacterium tuberculosis, read-out: MIC against M.tb
[3] = test system: mycobacteria; assay: In vitro sterilizing model; format: cell-based
[4] = test system: M. bovis BCG; assay: microbe, parasite or virus in culture; format: cell-based, Mycobacterium bovis BCG; settings: for MIC: Mycobacterium tuberculosis variant bovis BCG, BCG, read-out: minimum inhibitory concentration (MIC)
[5] = test system: latent (hypoxic) mycobacteria; assay: Killing of latent (hypoxic) mycobacteria in vitro; format: cell-based
[6] = test system: M. avium subspecies paratuberculosis (PTB); assay: BACTEC inhibition of PTB (paratuberculosis); format: cell-based, Mycobacterium avium subspecies paratuberculosis; settings: for activity against PTB (BACTEC growth index over time): single agents at the highest concentration
Description: The MIC was defined as the lowest inhibitor concentration that yielded a growth index change less than that of the 1:100 control bottle. A modification of this protocol was used for MIC determinations of MAC and M. avium subspecies paratuberculosis (Parrish, 2004). Susceptibilities and MIC determinations of M. tuberculosis isolates to isoniazid, streptomycin, ethambutol, rifampin, and pyrazinamide were done using standard BACTEC methods (Siddiqi, 1992). All primary drugs were purchased from Becton Dickinson (Sparks, Md.).
The inhibition assay was performed essentially as described in Example 1 for TB and BCG. Briefly, PTB inoculum was standardized by use of “seed vials” of a suspension of microorganisms in supplemented media. The suspension was vortexed with glass beads and then 0.3 ml to 0.5 ml was introduced into individual supplemented BACTEC 12B vials. Vials were subsequently incubated at 37° C. and the GI recorded until reaching 999. At that time, 0.3 ml of the “seed vial” was introduced into test and compound containing vials. Vials were then read at 24-hour intervals and the rest of the procedure followed as for TB and BCG. The MIC determination was the same as for TB and BCG.

[7] = agent alone at 1.5 μg/ml (FIG. 1, FIG. 2)
[8] = agent alone, DSA at 1/2, 1/4, or 1/8 of the MIC, NSA or OSA at the same concentrations as DSA (FIG. 1)
[9] = PTB strain #2, combination at 12.5 or 25.0 μg/ml each (FIG. 5)
[10] = PTB strain #4, combination at 12.5 or 25.0 μg/ml each (FIG. 6)
[11] = PTB strain #8, combination at 12.5 or 25.0 μg/ml each (FIG. 7)
[12] = PTB strain #15, combination at 12.5 or 25.0 μg/ml each (FIG. 9)
[13] = PTB strain #13, combination at 12.5 or 25.0 μg/ml each (FIG. 8)

SMILES | decomposition in acid pH ([1]; acid pH) | half-time of breakdown to release DSA ([1]; physiologic pH (or about 7.5)) | MIC [2] | activity in an in vitro sterilizing model [3] | MIC [4] | inhibition of growth of M. bovis BCG cells [4, 7] | inhibition of growth of M. bovis BCG cells [4, 8] | killing of latent (hypoxic) mycobacteria in vitro [5] | MIC ([6]; Mycobacterium avium, agent alone (FIGS. 4-9), read-out: MIC, various strains of PTB) | activity against PTB (BACTEC growth index over time) [6, 9] | activity against PTB (BACTEC growth index over time) [6, 10] | activity against PTB (BACTEC growth index over time) [6, 11] | activity against PTB (BACTEC growth index over time) [6, 12] | activity against PTB (BACTEC growth index over time) [6, 13] | MIC, various strains of PTB ([6]; agent alone (FIGS. 4-9))
CCCCCCCCCCS(=O)(=O)CC(=O)NCN1CCOCC1 [10 carbon compound] | resists decomposition | about 15 hours | 6.25 µg/mL (≈ 17.2 µM) |  |  |  |  |  |  |  |  |  |  |  | 
CCCCCCCCCCS(=O)(=O)CC(N)=O [DSA, n-decanesulphonylacetamide] |  |  | ~1 µg/mL (≈ 3.8 µM) | active | 1.5 µg/mL (≈ 5.69 µM) | some activity; also recorded: inhibit the growth | no effect | kill latent (hypoxic) mycobacteria | ≥ 25 µg/mL | some activity | some activity | some activity | some activity |  | 
CCCCCCCCCS(=O)(=O)CC(N)=O [NSA, n-nonanesulphonylacetamide] |  |  |  |  | 3 µg/mL (≈ 12 µM) | ineffective | no effect |  |  | some activity | some activity | some activity | some activity | some activity | considerably higher
CCCCCCCCS(=O)(=O)CC(N)=O [OSA, n-octanesulphonylacetamide] |  |  |  |  | 6.25 µg/mL (≈ 26.6 µM) | ineffective | no effect |  |  | no activity | no activity | no activity | no activity | no activity | considerably higher
